Data: publication PMC6120934, “Inhibiting Multiple Deubiquitinases to Reduce Androgen Receptor Expression in Prostate Cancer Cells” (Scientific Reports, 2018)

Columns and labels:
Assay type in all cases: biochemical
USP36 = target: T1, USP36 (Homo sapiens, UniProt Q9P275); assay: MALDI-TOF DUB activity assay with diubiquitin, single dose […]
T1 construct: recombinant
T1 sequence (Q9P275 1-1123): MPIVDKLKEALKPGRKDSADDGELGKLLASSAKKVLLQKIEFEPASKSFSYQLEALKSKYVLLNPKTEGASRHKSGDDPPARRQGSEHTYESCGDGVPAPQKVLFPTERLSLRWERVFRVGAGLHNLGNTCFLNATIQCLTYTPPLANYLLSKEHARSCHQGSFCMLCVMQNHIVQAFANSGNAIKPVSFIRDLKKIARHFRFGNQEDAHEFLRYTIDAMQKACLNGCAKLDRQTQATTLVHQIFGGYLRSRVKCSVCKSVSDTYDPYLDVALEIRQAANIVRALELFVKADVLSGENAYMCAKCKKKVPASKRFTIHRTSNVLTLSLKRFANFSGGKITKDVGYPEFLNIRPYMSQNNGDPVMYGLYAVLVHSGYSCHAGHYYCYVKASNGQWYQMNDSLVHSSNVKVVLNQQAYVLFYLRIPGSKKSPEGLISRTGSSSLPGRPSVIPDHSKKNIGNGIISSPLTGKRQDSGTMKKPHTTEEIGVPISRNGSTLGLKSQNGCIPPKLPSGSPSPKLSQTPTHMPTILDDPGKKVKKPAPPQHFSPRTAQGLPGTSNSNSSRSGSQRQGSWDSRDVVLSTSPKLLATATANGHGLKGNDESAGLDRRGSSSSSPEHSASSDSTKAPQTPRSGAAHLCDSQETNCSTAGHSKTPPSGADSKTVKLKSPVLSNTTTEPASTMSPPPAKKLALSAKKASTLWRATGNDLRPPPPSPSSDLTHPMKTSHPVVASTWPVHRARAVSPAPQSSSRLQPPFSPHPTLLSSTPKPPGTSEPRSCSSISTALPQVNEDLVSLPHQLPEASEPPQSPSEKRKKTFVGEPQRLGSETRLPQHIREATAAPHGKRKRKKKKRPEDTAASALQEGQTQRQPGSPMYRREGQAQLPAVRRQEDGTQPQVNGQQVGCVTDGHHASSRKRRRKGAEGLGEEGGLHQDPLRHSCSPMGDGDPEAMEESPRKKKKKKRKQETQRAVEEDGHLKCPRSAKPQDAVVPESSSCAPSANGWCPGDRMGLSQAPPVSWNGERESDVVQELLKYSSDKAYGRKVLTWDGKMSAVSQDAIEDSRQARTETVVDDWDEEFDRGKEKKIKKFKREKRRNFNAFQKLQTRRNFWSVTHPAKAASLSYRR

USP16 = target: T2, USP16 (Homo sapiens, UniProt Q9Y5T5); assay: as above
T2 construct: recombinant

USP27X = target: T3, USP27X (Homo sapiens, UniProt A6NNY8); assay: as above
T3 construct: recombinant (recUSP27)
T3 sequence (A6NNY8 1-438): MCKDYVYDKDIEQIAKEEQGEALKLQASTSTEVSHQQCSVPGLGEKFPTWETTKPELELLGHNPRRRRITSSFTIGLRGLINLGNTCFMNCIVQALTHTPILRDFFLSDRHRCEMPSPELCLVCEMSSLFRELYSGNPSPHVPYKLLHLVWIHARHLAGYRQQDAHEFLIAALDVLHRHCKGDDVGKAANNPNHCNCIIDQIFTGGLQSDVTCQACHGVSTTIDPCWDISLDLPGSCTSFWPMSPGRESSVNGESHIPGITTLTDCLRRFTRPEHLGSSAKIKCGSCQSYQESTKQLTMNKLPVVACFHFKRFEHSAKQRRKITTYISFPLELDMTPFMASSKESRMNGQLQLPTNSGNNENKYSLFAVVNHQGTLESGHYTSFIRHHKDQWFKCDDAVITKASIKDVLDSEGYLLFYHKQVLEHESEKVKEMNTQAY

USP21 = target: T4, USP21 (Homo sapiens, UniProt Q9UK80); assay: MALDI-TOF DUB activity assay with diubiquitin; […] inhibition at […]
T4 construct: recombinant (recUSP21)
T4 sequence (Q9UK80 1-565): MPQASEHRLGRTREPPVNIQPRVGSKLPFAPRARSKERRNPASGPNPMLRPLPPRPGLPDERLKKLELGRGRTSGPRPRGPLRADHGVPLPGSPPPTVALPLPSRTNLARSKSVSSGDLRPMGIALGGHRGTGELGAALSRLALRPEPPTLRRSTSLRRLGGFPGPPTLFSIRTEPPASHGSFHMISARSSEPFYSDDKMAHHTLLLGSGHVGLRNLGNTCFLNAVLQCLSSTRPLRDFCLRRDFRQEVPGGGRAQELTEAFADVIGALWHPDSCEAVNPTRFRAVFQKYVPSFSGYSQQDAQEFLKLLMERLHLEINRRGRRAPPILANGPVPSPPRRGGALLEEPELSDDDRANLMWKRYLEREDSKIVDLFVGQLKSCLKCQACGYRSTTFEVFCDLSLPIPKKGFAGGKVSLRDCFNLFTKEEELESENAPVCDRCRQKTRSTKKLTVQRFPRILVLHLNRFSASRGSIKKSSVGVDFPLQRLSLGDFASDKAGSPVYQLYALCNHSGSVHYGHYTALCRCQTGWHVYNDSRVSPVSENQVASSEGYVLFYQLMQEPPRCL

T2 sequence (Q9Y5T5 whole entry): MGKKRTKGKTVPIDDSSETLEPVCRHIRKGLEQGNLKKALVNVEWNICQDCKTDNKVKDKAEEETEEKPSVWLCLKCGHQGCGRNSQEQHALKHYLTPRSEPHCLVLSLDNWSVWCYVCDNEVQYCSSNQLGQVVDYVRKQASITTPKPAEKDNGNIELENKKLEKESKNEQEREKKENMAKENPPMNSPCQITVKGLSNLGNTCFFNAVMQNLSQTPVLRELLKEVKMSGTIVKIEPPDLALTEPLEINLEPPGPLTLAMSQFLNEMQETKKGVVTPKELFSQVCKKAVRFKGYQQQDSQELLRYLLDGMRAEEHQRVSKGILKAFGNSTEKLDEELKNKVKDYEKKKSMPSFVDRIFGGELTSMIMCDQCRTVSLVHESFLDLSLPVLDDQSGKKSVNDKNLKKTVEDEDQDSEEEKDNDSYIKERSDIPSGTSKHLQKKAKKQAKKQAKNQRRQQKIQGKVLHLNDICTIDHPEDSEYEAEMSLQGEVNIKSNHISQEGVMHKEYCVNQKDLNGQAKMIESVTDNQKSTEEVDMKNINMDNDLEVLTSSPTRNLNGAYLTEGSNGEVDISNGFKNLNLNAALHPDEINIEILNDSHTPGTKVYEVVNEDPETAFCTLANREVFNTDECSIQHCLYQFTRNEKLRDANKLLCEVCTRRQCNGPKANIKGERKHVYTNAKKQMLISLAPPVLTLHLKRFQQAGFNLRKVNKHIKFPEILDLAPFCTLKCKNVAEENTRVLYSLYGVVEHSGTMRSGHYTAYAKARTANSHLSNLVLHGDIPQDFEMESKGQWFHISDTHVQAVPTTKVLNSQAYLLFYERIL

## C=C(C)[C@@H]1CC[C@]2(C(=O)O)CC[C@]3(C)[C@H](CC[C@@H]4[C@@]5(C)CC[C@H](O)C(C)(C)[C@@H]5CC[C@]43C)[C@@H]12 [BA, betulinic acid]
USP36
  inhibition at 10 µM: 40%
USP16
  inhibition at 10 µM: 40%
USP27X
  inhibition at 10 µM: 60%
USP21
  IC50: 6.1 µM
